The supplement of paper PMC10307832

How the values were obtained:
Assay in all cases: relative viability (nuclei count vs DMSO), 5 days (fraction); higher = more cells survive
BAM7 + Crizotinib = compound: CCOC1=CC=CC=C1N=NC2=C(NN(C2=O)C3=NC(=CS3)C4=CC=CC=C4)C [BAM7] + C[C@@H](Oc1cc(-c2cnn(C3CCNCC3)c2)cnc1N)c1c(Cl)ccc(F)c1Cl [Crizotinib] (partner 1 µM)
Method in brief: (§1)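 Medians of duplicate plates are given as relative viability. That measure is the nuclei count in treated wells divided by the count in vehicle wells. Counts were taken on 4× images of lung cancer cell lines in 1536-well plates, 5 days after pin-tool dosing the day after seeding with one drug alone or a fixed anchor-drug dose plus five library-drug doses (not always all listed) in √10 steps.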

BAM7 + Luminespib = compound: CCOC1=CC=CC=C1N=NC2=C(NN(C2=O)C3=NC(=CS3)C4=CC=CC=C4)C [BAM7] + CCNC(=O)c1noc(-c2cc(C(C)C)c(O)cc2O)c1-c1ccc(CN2CCOCC2)cc1 [Luminespib] (partner 0.01 µM)
Method in brief: as §1

[1] = compound: CCn1c(-c2nonc2N)nc2c(C#CC(C)(C)O)ncc(OC[C@H]3CCCNC3)c21 + COc1cccc2cc(-c3nc([C@H]4CC[C@H](C(=O)O)CC4)n4ncnc(N)c34)[nH]c12 [OSI-027] (partner 0.5 µM)
Method in brief: as §1

BAM7 + Pemetrexed = compound: CCOC1=CC=CC=C1N=NC2=C(NN(C2=O)C3=NC(=CS3)C4=CC=CC=C4)C [BAM7] + Nc1nc2[nH]cc(CCc3ccc(C(=O)N[C@@H](CCC(=O)O)C(=O)O)cc3)c2c(=O)[nH]1 [Pemetrexed] (partner 0.2 µM)
Method in brief: as §1

Row | Cell Line | relative viability (BAM7 + Crizotinib; first compound 0.5 µM) | relative viability (BAM7 + Crizotinib; first compound 5 µM) | relative viability (BAM7 + Crizotinib; first compound 15.81 µM) | relative viability (BAM7 + Crizotinib; first compound 50 µM) | relative viability (BAM7 + Luminespib; first compound 0.5 µM) | relative viability (BAM7 + Luminespib; first compound 5 µM) | relative viability (BAM7 + Luminespib; first compound 15.81 µM) | relative viability (BAM7 + Luminespib; first compound 50 µM) | relative viability ([1]; first compound 0.01 µM) | relative viability ([1]; first compound 0.03162 µM) | relative viability ([1]; first compound 0.1 µM) | relative viability ([1]; first compound 0.3162 µM) | relative viability ([1]; first compound 1 µM) | relative viability (BAM7 + Pemetrexed; first compound 0.5 µM) | relative viability (BAM7 + Pemetrexed; first compound 5 µM) | relative viability (BAM7 + Pemetrexed; first compound 15.81 µM) | relative viability (BAM7 + Pemetrexed; first compound 50 µM)
1 | NCI-H650 | 0.649 | 0.764 | 0.656 | 0.69 | 0.73 | 1.03 | 0.755 | 0.917 | 0.412 | 0.39 | 0.495 | 0.463 | 0.441 | 1.03 | 0.979 | 0.987 | 1
2 | NCI-H661 | 1.27 | 1.08 | 0.971 | 0.931 | 0.916 | 0.938 | 0.96 | 0.921 | 0.659 | 0.781 | 0.644 | 0.553 | 0.501 | 0.949 | 0.973 | 0.921 | 0.917
3 | NCI-H838 | 0.867 | 0.904 | 0.803 | 0.783 | 0.359 | 0.292 | 0.346 | 0.328 | 0.354 | 0.406 | 0.367 | 0.401 | 0.428 | 0.293 | 0.259 | 0.249 | 0.231
4 | NCI-H1355 | 0.968 | 1.05 | 0.937 | 0.987 | 0.697 | 0.754 | 0.637 | 0.707 | 0.451 | 0.379 | 0.378 | 0.393 | 0.424 | 1.08 | 0.978 | 1 | 1.01
5 | NCI-H1437 | 1 | 1.16 | 0.53 | 0.937 | 1.16 | 1.13 | 1.12 | 1.09 | 0.815 | 0.951 | 0.885 | 0.758 | 0.897 | 0.308 | 0.304 | 0.33 | 0.372
6 | NCI-H1563 | 0.974 | 0.942 | 0.889 | 0.841 | 0.508 | 0.518 | 0.562 | 0.564 | 0.73 | 0.783 | 0.686 | 0.688 | 0.666 | 0.778 | 0.853 | 0.813 | 0.633
7 | NCI-H1650 | 0.882 | 1.07 | 0.939 | 0.848 | 0.171 | 0.191 | 0.19 | 0.2 | 0.641 | 0.625 | 0.508 | 0.421 | 0.359 | 0.336 | 0.399 | 0.399 | 0.354
8 | NCI-H1651 | 0.826 | 0.889 | 0.871 | 0.886 | 0.761 | 0.836 | 0.853 | 0.734 | 0.719 | 0.676 | 0.723 | 0.563 | 0.9 | 0.548 | 0.586 | 0.639 | 0.569
9 | NCI-H1666 | 1.07 | 1.02 | 1.03 | 0.967 | 1 | 0.953 | 1.03 | 1.03 | 0.776 | 0.777 | 0.835 | 0.693 | 0.722 | 0.919 | 0.846 | 0.82 | 0.82
